Experiment: Chemical stability of substituted tryptamine derivatives under alkaline, acidic, oxidative and heat stress
Format: physicochemical
Details: for Degradation after 24 h exposure (in words): all conditions tested
Protocol: Chemical stability of substituted tryptamine derivatives was determined under alkaline, acidic, oxidative and heat stress as follows. 25 mM stock solutions of the target tryptamine molecules were prepared in 100% methanol. 15 μL is mixed with 5 μL of 400 mM HCl solution (final pH=1.1), 400 mM NaOH solution (Final pH=12.5), 12% H2O2 solution (final concentration 3%), or H2O pH 7.0. Acidic, alkaline and oxidative samples were incubated at 30° C. for 24 h while samples in water were incubated at 80° C. for 24 h. A control under ambient conditions was also prepared where 15 μL of the molecule was added to 5 μL H2O pH 7.0 and incubated at 30° C. After 24 h samples were placed on ice and 60 μL of ice-cold 100% methanol is added to each sample. Samples were centrifuged and transferred to HPLC vials for analysis. The remaining concentration was quantified by comparing to authentic analytical standards. Determining the presence of degradation products were determined by comparing with authentic analytical standards.
While the added phosphate group of psilocybin helps protect the molecule from degradation, psilocybin is also relatively unstable, prone to dephosphorylation to psilocin and subsequent degradation. The instability of these molecules hinders formulation and delivery of the compound for therapeutic use. To improve the chemical stability of the active compound psilocin, glycosylation can be used as an effective strategy. […] Degradation of each compound was assessed by measuring the amount of compound remaining after 24 h exposure to each condition.

[1] = pH = 1.1 (HCl), 24 h incubation
[2] = pH = 12.5 (NaOH), 24 h incubation

CN(C)CCc1c[nH]c2cccc(OP(=O)(O)O)c12 [Psilocybin]
Degradation after 24 h exposure (in words): much less degradation compared to psilocin

CN(C)CCc1c[nH]c2cccc(O)c12 [Psilocin]
% left after 24 h (3% H2O2, 24 h incubation): 0.0%
% left after 24 h (4° C., 24 h incubation): 0.0%
% left after 24 h (30° C., 24 h incubation): 0.0%
% left after 24 h (80° C., 24 h incubation): 0.0%
% left after 24 h (Control): 100.0%
Degradation after 24 h exposure (in words): complete degradation
% left after 24 h [1]: 0.0%
% left after 24 h [2]: 0.0%

CN(C)CCc1c[nH]c2cccc(O[C@@H]3O[C@H](CO)[C@@H](O)[C@H](O)[C@H]3O)c12 [Psilocin glucoside, psilocin-O-β-D-glucoside]
% left after 24 h (3% H2O2, 24 h incubation): 100.0%
% left after 24 h (4° C., 24 h incubation): 100.0%
% left after 24 h (30° C., 24 h incubation): 100.0%
% left after 24 h (80° C., 24 h incubation): 100.0%
% left after 24 h (Control): 100.0%
Degradation after 24 h exposure (in words): practically no signs of degradation
% left after 24 h [1]: 100.0%
% left after 24 h [2]: 100.0%

— patent US20240254533A1, “METHODS FOR PRODUCING TRYPTAMINE DERIVATIVES” (OCTARINE BIO APS, priority 2021, published 2024)
